The target of assay [1] is T1, PfeA R480A-Q482A double mutant (Pseudomonas aeruginosa, UniProt Q05098, Q507A/R505A).
T1 construct: His7 tag with TEV protease site (N, cleaved yes); made in house; host or cells: E. coli C43 (DE3)
The assay is described as follows: coelution on S200 size-exclusion column, PfeA R480A-Q482A. It counts as binding. Here is the method: Proteins were incubated with the Fe^3+-siderophore before being loaded on a S200 size-exclusion column.

The subject of assay [2] is wild-type PAO1 strain. The assay is described as follows: 55Fe-enterobactin binding and uptake assay, PAO1. It counts as cell-based, Pseudomonas aeruginosa. The settings on record: replicates, Figure 6b-c, listed as 55Fe-enterobactin. Here is the method:
(§1) Fig. 6 Effects of PfeA mutation in vivo. a Analysis of changes in the transcription of pfeA gene. PAO1 strain, its corresponding deletion mutant ∆pfeA and deletion mutants carrying the expression plasmid of PfeA wild-type (∆pfeA(pMMBpfeA) or the R480A-Q482A mutant (∆pfeA(pMMBpfeAR480AQ482A)) were grown in CAA medium supplemented with 10 µM enterobactin. The data were normalised relative to the reference gene uvrD, and are representative of three independent experiments performed in triplicate (n = 3). The results are given as a ratio between the values obtained for ∆pfeA, ∆pfeA(pMMBpfeA) and ∆pfeA(pMMBpfeAR480AQ482A) over those obtained for the PAO1 strain. b ^55Fe-enterobactin binding at the bacterial surface. Cells were grown as in panel a, and were incubated for 15 min with 200 µM CCCP before initiation of transport assays by the addition of 500 nM ^55Fe-enterobactin. After 30 min incubation, the radioactivity accumulated in the bacteria was counted. The results are expressed as pmol of ^55Fe-enterobactin bound per ml of cells at an OD600 of 1. The experiments have been repeated three times. c ^55Fe-enterobactin binding and uptake. Cells were grown as in panel a, and were incubated with or without 200 µM CCCP before initiation of transport assays by the addition of 500 nM ^55Fe-enterobactin. After 30 min incubations, the radioactivity accumulated in the bacteria was counted. The results are expressed as pmol of ^55Fe-enterobactin bound and transported per ml of cells at an OD600 of 1. The experiments have been repeated three times
The complex was prepared at ^55Fe concentrations of 50 μM, with a siderophore:iron (mol:mol) ratio of 20:1. P. aeruginosa strains were first grown overnight at 30 °C in LB broth, and were then washed, resuspended and cultured overnight at 30 °C in iron-deficient CAA medium (casamino acid medium, composition: 5 g.l^−1 low-iron CAA (Difco), 1.46 g.l^−1 K2HPO4 3H2O, 0.25 g.l^−1 MgSO4 7H2O) and in the presence of 10 µM enterobactin to induce the expression of PfeA. CAA is a highly iron-restricted medium with iron concentrations of 20 nM[59]. Afterwards bacteria were washed with 50 mM Tris-HCl pH 8.0, and diluted to an OD600 of 1. Cells solutions were divided in two, one batch being treated with 200 μM CCCP. […] After 30 min of incubations, cells were centrifuged, and the radioactivity associated to the bacteria was monitored in the cell pellets. For the cells treated with CCCP, the radioactivity in the cell pellets corresponds to the binding of ^55Fe-enterobactin to P. aeruginosa cell surface, since no uptake occurs. In the absence of CCCP, the radioactivity associated to the cells corresponds to ^55Fe-enterobactin binding to the cell surface and the uptake into the bacteria.

The subject of assay [3] is ∆pfeA cells with no plasmid. The experiment in a line: 55Fe-enterobactin binding and uptake assay, ∆pfeA. It counts as cell-based, Pseudomonas aeruginosa. The conditions noted are these: for 55Fe count, Comptage / 55Fe-enterobactin bound/taken up: replicates, Figure 6b-c, listed as 55Fe-enterobactin. Here is the method:
as §1
The complex was prepared at ^55Fe concentrations of 50 μM, with a siderophore:iron (mol:mol) ratio of 20:1. P. aeruginosa strains were first grown overnight at 30 °C in LB broth, and were then washed, resuspended and cultured overnight at 30 °C in iron-deficient CAA medium (casamino acid medium, composition: 5 g.l^−1 low-iron CAA (Difco), 1.46 g.l^−1 K2HPO4 3H2O, 0.25 g.l^−1 MgSO4 7H2O) and in the presence of 10 µM enterobactin to induce the expression of PfeA. CAA is a highly iron-restricted medium with iron concentrations of 20 nM[59]. Afterwards bacteria were washed with 50 mM Tris-HCl pH 8.0, and diluted to an OD600 of 1. Cells solutions were divided in two, one batch being treated with 200 μM CCCP. This compound collapses the proton-motive force across the bacterial cell membranes, inhibiting TonB-dependent iron uptake. Binding and transport assays were initiated by adding 500 nM ^55Fe-enterobactin to the bacterial solutions treated or not with CCCP. After 30 min of incubations, cells were centrifuged, and the radioactivity associated to the bacteria was monitored in the cell pellets. For the cells treated with CCCP, the radioactivity in the cell pellets corresponds to the binding of ^55Fe-enterobactin to P. aeruginosa cell surface, since no uptake occurs. In the absence of CCCP, the radioactivity associated to the cells corresponds to ^55Fe-enterobactin binding to the cell surface and the uptake into the bacteria.

Where “and” joins values, the source holds several entries; their conditions need not be identical. Equal entries are not always repeated.

T1 sequence (Q05098 26-746 R505A/Q507A): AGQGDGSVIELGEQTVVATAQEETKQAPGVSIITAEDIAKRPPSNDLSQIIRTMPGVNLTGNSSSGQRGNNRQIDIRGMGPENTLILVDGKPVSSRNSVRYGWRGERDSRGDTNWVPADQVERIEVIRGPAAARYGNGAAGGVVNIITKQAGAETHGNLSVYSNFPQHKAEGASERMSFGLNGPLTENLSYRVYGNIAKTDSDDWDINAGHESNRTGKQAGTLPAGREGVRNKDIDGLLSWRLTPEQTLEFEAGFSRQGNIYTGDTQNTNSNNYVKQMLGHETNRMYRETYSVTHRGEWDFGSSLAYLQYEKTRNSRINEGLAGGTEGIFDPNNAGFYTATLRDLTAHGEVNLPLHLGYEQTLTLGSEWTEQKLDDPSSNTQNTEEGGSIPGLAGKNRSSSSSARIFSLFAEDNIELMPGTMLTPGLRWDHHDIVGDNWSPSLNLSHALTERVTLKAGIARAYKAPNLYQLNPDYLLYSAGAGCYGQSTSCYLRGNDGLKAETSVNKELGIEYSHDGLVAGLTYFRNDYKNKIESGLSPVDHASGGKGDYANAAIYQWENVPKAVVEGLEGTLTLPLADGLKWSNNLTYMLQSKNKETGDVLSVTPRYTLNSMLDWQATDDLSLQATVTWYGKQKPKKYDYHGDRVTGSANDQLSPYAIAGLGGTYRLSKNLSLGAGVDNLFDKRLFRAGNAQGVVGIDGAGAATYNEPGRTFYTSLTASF

With `O=C(N[C@H]1COC(=O)[C@@H](NC(=O)c2cccc([O-])c2[O-])COC(=O)[C@@H](NC(=O)c2cccc([O-])c2[O-])COC1=O)c1cccc([O-])c1[O-].[Fe+3]` [Fe^3+-enterobactin], the “coelution with protein on size-exclusion column” value in assay [1] is “does not coelute”. Also, the “55Fe count, Comptage” value was 1670 dpm and 1638 dpm and 1498 dpm in assay [2] (PAO1 + CCCP); 14331 dpm and 14149 dpm and 16177 dpm in assay [2] (PAO1, no CCCP); 1560 dpm and 1268 dpm and 1340 dpm in assay [3] (∆pfeA + CCCP); 3228 dpm and 4151 dpm and 2977 dpm in assay [3] (∆pfeA, no CCCP). Moreover, the 55Fe-enterobactin bound/taken up was 21.426 pmol/ml/DO600 and 21.0154 pmol/ml/DO600 and 19.2192 pmol/ml/DO600 in assay [2] (PAO1 + CCCP); 183.866 pmol/ml/DO600 and 181.531 pmol/ml/DO600 and 207.55 pmol/ml/DO600 in assay [2] (PAO1, no CCCP); 20.0147 pmol/ml/DO600 and 16.2683 pmol/ml/DO600 and 17.1921 pmol/ml/DO600 in assay [3] (∆pfeA + CCCP); 41.415 pmol/ml/DO600 and 53.257 pmol/ml/DO600 and 38.1947 pmol/ml/DO600 in assay [3] (∆pfeA, no CCCP). Also, the “^55Fe-siderophore binding at the bacterial surface” value in assay [3] (CCCP treated cells (200 µM), 500 nM ^55Fe-enterobactin, 30 min) is given as “same low level of binding as wild-type PAO1”.

These data come from publication PMC6694100, “The complex of ferric-enterobactin with its transporter from Pseudomonas aeruginosa suggests a two-site model” (Nature Communications, 2019).
